Source: publication PMC7060351, “Biochemical features of the novel Tail Tubular Protein A of Yersinia phage phiYeO3-12” (Scientific Reports, 2020)

Legend:
[1] = molecular target: T1, TTPAgp11 (Yersinia phage phiYeO3-12, UniProt Q9T106); experiment: nanoDSF thermal unfolding ([…] nm ratio); format: binding; conditions: 0.25 mg/ml protein, 0.15 mg/ml sugar; 2 °C/min from 20 to 95 °C; protein alone Tm 53.27 °C; inverted unfolding profile, aggregation
T1 construct: gene 11
T1 sequence (Q9T106 1-196): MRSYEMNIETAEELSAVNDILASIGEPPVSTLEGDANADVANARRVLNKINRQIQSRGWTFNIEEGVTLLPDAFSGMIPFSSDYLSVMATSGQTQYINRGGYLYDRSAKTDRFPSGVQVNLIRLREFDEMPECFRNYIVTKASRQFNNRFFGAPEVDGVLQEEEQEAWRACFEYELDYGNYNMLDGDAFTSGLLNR

[2] = molecular target: T1, TTPAgp11; experiment: backreflection light scattering during nanoDSF melting scan (aggregation); format: binding; conditions: 0.25 mg/ml protein, 0.15 mg/ml sugar; 2 °C/min from 20 to 95 °C; no unfolding Tm obtained (NA); no scattering transition for protein alone (NA)
Excerpt: backreflection light scattering during nanoDSF melting scan (aggregation) on TTPAgp11

[3] = molecular target: T1, TTPAgp11; experiment: GC of released glucose after MTBSTFA derivatisation; format: biochemical; conditions: PBS, room temperature, 24 h; 20 µl of 47 µM protein, 100 µl of 1 mg/ml maltose in 0.2 ml

SMILES	Tm / Fluorescence ratio 350 nm/330 nm / [°C] [1]	Tm / Scattering / [°C] [2]	% of maltose hydrolyzed [3]
CC(=O)N[C@H]1C(O)O[C@H](CO)[C@@H](O)[C@@H]1O (stereo partly drawn) [N-acetylglucosamine]	36.41 °C	–	–
OC[C@H]1O[C@H](O[C@H]2[C@H](O)[C@@H](O)C(O)O[C@@H]2CO)[C@H](O)[C@@H](O)[C@@H]1O (stereo partly drawn) [maltose]	–	36.26 °C	15–18%
